Data set [1] deals with Mus musculus. The experiment in a line: Antinociceptive activity in mouse administered icv. Type of data set: functional.
In data set [2] the test system is Mus musculus. The data set can be described thus: Antinociceptive activity in mouse administered po by tail pressure test. Type of data set: functional.
Data set [3] has as its system Mus musculus. The data set can be described thus: Antinociceptive activity in mouse administered sc by tail pressure test. It counts as functional.
For data set [4], the target named is Mu-type opioid receptor (Cavia porcellus, UniProt P97266). The experiment in a line: Antagonist activity at guinea pig ileum MOP. Type of data set: functional, tissue-based.
The target of data set [5] is T1, Mu-type opioid receptor (Homo sapiens, UniProt P35372). The data set can be described thus: Agonist activity at human MOP expressed in CHO-K1 cell membrane assessed as [35S]GTPgammaS binding. Type of data set: functional, cell membranes. Background: GTPγS resists hydrolysis and so accumulates on activated G proteins.
Data set [6] relates to Rattus norvegicus. The experiment in a line: Antinociceptive activity in Sprague-Dawley rat assessed as tail flick response in warm water administered po. Type of data set: functional.
In data set [7] the target is T1, Mu-type opioid receptor. The data set can be described thus: Displacement of [3H]DAMGO from human MOP expressed in CHO-K1 cell membrane incubated for 60 mins by Microscint-counting analysis. Type of data set: cell membranes.
Data set [8] concerns the target Delta-type opioid receptor (Homo sapiens, UniProt P41143). The experiment in a line: Displacement of [3H]DPDPE from human DOP expressed in CHO-K1 cell membrane incubated for 60 mins by Microscint-counting analysis. It counts as cell membranes. Background: In a radioligand displacement assay an active substance lowers the binding of a labelled ligand.
Data set [9] addresses T2, Kappa-type opioid receptor (Rattus norvegicus, UniProt P34975). The experiment in a line: Displacement of [3H]-norBNI from Wistar rat brain membrane KOP. It counts as cell membranes.
Data set [10] deals with Mus musculus. The data set can be described thus: Antinociceptive activity in Swiss albino mouse assessed tail flick response in warm water administered icv. It counts as functional.
Data set [11] relates to Rattus norvegicus. The data set can be described thus: Antinociceptive activity in Sprague-Dawley rat assessed as tail flick response in warm water administered iv. It counts as functional.
In data set [12] the target is T1, Mu-type opioid receptor. The data set can be described thus: Agonist activity at human MOP expressed in CHO-K1 cell membrane assessed as [35S]GTPgammaS binding relative to control. To be noted: filed as agonist. Type of data set: functional, cell membranes.
A short description of data set [13]: Stability in rat plasma assessed as half life. Type of data set: ADME, cell-free.
The test system of data set [14] is Rattus norvegicus. The experiment in a line: Antinociceptive activity in Sprague-Dawley rat assessed as tail flick response in warm water administered icv. Type of data set: functional.
Data set [15] deals with T3, Kappa-type opioid receptor (Homo sapiens, UniProt P41145). The data set can be described thus: Displacement of [3H]U69593 from human KOP expressed in CHO-K1 cell membrane incubated for 60 mins by Microscint-counting analysis. It counts as cell membranes.
Data set [16] in a line: Stability in human plasma assessed as half life. It counts as ADME, cell-free.
The target in data set [17] is Kappa-type opioid receptor (Mus musculus, UniProt P33534). The data set can be described thus: Displacement of [3H]U-69593 from mouse spinal cord KOP measured after 60 mins by liquid scintillation counter analysis. Type of data set: tissue-based.
The species named for data set [18] is Mus musculus. The data set can be described thus: Antinociceptive activity in mouse […]. It counts as functional. To be noted: time 2 hrs.
Data set [19] addresses T4, Delta-type opioid receptor (Mus musculus, UniProt P32300). The data set can be described thus: Displacement of [3H]deltorphin-II from mouse spinal cord DOP measured after 60 mins by liquid scintillation counter analysis. It counts as tissue-based.
Data set [20] has as its target Mu-type opioid receptor (Mus musculus, UniProt P42866). The experiment in a line: Displacement of [3H]DAMGO from mouse spinal cord MOP measured after 60 mins by liquid scintillation counter analysis. It counts as tissue-based.
Data set [21] deals with Mus musculus. The experiment in a line: Antinociceptive activity in icv dosed C57BL/6J mouse assessed as tail withdrawal latency from warm water. It counts as functional.
The target of data set [22] is T3, Kappa-type opioid receptor. The data set can be described thus: Antagonist activity at human KOP stably expressed in CHO cell membrane assessed as [35S]GTPgammaS binding. Type of data set: functional, cell membranes.
Data set [23] concerns the target T1, Mu-type opioid receptor. The data set can be described thus: Antagonist activity at human MOP stably expressed in CHO cell membrane assessed as [35S]GTPgammaS binding. It counts as functional, cell membranes.
Data set [24] deals with T5, Mu-type opioid receptor (Rattus norvegicus, UniProt P33535). The data set can be described thus: Displacement of [3H]DAMGO from rat MOP stably expressed in CHO cell membrane. It counts as cell membranes.
Data set [25] addresses T2, Kappa-type opioid receptor. The data set can be described thus: Displacement of [3H]diprenorphine from rat KOP stably expressed in CHO cell membrane. Type of data set: cell membranes.
Data set [26] deals with T4, Delta-type opioid receptor. The data set can be described thus: Displacement of [3H]DPDPE from mouse DOP stably expressed in CHO cell membrane. Type of data set: cell membranes.
Data set [27] addresses T5, Mu-type opioid receptor. The experiment in a line: Inhibition of Wistar rat brain membrane MOP. Type of data set: cell membranes.
Data set [28] deals with T2, Kappa-type opioid receptor. The experiment in a line: Inhibition of Wistar rat brain membrane KOP. Type of data set: cell membranes.
The target in data set [29] is Delta-type opioid receptor (Rattus norvegicus, UniProt P33533). The experiment in a line: Inhibition of Wistar rat brain membrane DOP. It counts as cell membranes.
In data set [30] the target is T1, Mu-type opioid receptor. The data set can be described thus: Agonist activity at human recombinant MOP expressed in CHO cells by calcium mobilization assay. Type of data set: functional, cell-based. Background: Calcium flux is commonly read through the fluorescence of an indicator in the cells.

Bridge positions count the residues as written; N and C are the ends. Square brackets hold non-standard residues; d marks the D form. Peptide text beside a SMILES is read from it. d1Nal = N[C@H](Cc1cccc2ccccc12)C(=O)O; d2Nal = N[C@H](Cc1ccc2ccccc2c1)C(=O)O; Dmt = Cc1cc(O)cc(C)c1C[C@H](N)C(=O)O Bounds are passed on as bounds.

As a reminder, the IC50 is the midpoint of a concentration-inhibition curve. What is called EC50 is the concentration that produces a half-maximal response. As usually defined, the Ki is a measure of affinity in units of concentration, obtained from inhibition or displacement. Read a low Ki as higher affinity. For orientation: Emax means the size of the effect at its maximum, as opposed to the concentration needed. The half-life is the time needed for the level to fall by half in the phase considered.

T1 sequence (P35372 whole entry): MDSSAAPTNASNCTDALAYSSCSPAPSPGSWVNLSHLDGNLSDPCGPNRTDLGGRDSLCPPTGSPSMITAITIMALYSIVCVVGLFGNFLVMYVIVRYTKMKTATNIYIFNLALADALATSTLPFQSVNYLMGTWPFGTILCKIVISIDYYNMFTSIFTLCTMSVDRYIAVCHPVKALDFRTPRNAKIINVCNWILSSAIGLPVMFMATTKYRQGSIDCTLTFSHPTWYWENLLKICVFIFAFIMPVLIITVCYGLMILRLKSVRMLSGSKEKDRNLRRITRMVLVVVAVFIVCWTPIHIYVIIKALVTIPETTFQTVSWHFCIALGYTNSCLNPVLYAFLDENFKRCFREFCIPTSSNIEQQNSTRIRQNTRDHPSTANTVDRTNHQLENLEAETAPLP
T2 sequence (P34975 whole entry): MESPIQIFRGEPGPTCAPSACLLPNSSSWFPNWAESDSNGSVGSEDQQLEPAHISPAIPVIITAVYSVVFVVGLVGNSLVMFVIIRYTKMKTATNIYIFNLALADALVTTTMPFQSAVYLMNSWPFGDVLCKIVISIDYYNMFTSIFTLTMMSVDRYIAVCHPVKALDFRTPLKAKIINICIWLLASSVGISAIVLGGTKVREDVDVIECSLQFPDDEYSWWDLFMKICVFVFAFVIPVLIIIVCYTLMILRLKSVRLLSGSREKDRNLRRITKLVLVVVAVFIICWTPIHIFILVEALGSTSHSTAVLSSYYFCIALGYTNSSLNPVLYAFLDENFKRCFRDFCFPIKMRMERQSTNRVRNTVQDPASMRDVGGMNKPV
Delta-type opioid receptor (Homo sapiens, UniProt P41143), sequence (P41143 whole entry): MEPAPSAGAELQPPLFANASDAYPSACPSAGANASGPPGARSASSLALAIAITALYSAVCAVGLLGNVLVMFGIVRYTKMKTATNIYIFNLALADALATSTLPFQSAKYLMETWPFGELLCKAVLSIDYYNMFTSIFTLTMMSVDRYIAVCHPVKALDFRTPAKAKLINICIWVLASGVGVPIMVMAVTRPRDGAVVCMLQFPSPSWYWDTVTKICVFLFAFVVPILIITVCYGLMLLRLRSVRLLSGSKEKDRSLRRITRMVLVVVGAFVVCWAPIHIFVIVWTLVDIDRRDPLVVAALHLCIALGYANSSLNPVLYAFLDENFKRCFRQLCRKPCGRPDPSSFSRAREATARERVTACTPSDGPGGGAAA
T3 sequence (P41145 whole entry): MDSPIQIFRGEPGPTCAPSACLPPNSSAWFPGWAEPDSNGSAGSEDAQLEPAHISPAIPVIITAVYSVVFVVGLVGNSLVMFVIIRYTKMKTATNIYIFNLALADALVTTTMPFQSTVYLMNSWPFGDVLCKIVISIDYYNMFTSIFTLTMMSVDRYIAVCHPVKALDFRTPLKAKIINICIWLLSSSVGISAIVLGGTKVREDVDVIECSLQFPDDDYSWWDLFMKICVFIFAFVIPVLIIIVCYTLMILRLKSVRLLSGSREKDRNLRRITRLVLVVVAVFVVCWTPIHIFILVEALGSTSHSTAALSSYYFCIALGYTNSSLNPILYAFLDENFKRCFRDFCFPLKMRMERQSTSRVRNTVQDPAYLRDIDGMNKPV
T5 sequence (P33535 whole entry): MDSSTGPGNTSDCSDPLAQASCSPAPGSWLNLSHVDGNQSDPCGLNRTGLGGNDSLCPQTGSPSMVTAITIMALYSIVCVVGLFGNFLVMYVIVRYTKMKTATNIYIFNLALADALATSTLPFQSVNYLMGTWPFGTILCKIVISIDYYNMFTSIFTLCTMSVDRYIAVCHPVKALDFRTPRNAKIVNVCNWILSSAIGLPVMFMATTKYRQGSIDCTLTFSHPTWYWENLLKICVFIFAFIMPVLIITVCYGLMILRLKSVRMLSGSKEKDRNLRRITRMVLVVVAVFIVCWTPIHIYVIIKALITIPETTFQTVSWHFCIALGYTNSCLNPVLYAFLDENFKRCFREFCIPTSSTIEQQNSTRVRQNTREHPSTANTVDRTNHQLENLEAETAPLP
T4 sequence (P32300 whole entry): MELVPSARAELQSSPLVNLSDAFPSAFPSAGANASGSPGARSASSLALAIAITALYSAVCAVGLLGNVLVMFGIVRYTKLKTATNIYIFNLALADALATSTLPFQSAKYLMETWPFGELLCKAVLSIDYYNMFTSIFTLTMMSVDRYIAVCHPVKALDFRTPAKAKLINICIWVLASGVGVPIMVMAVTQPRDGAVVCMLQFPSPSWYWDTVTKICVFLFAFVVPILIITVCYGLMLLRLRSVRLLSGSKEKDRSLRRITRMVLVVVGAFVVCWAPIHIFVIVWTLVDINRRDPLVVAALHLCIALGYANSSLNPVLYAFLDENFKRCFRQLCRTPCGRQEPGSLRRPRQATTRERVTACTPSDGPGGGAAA
Mu-type opioid receptor (Mus musculus, UniProt P42866), sequence (P42866 whole entry): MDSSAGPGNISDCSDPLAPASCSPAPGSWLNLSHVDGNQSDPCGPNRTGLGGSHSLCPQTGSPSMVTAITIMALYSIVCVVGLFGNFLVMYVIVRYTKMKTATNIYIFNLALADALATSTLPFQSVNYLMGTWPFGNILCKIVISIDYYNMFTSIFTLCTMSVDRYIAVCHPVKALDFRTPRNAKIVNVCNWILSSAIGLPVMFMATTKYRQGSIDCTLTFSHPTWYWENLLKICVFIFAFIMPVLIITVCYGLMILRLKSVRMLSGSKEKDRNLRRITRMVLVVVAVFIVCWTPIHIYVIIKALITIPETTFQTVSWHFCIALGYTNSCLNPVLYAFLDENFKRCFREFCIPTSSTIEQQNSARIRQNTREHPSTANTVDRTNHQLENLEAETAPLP
Mu-type opioid receptor (Cavia porcellus, UniProt P97266), sequence (P97266 whole entry): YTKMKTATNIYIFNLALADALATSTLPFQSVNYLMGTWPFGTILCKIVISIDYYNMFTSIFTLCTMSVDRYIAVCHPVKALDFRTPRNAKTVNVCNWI
Delta-type opioid receptor (Rattus norvegicus, UniProt P33533), sequence (P33533 whole entry): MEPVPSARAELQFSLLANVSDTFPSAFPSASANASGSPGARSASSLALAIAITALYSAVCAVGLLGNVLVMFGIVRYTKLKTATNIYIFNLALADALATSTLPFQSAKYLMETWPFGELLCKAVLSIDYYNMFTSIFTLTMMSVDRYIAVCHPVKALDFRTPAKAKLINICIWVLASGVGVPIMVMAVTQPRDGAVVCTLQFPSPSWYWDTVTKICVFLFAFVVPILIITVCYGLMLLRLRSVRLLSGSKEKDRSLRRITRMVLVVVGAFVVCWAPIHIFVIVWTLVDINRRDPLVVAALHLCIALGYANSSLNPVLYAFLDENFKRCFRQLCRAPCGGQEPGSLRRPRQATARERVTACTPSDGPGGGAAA
Kappa-type opioid receptor (Mus musculus, UniProt P33534), sequence (P33534 whole entry): as the sequence (P34975 whole entry) above, with E11D, A17S, P51S, V308A counted along it

Take `N=C(N)NCCC[C@@H](NC(=O)[C@@H](N)Cc1ccc(O)cc1)C(=O)N[C@@H](Cc1ccccc1)C(N)=O`: the ED50 in [1] amounted to 210 pmol; in data set [2], 103 µmol/kg; in [3], 1 µmol/kg. In [4], the IC50 came to 240 nM.
As for `NC(=O)[C@@H]1CCCCNC(=O)CC[C@@H](NC(=O)[C@@H](N)Cc2ccc(O)cc2)C(=O)N[C@@H](Cc2ccccc2)C(=O)N[C@@H](Cc2ccccc2)C(=O)N1`, the EC50 in data set [5] stood at 1.5 nM. Also, in data set [6], the ED50 is 3.5 µmol. Moreover, the inhibition constant (Ki) in [7] is 0.96 nM; in data set [8] it was 82 nM.
On to `Cc1cc(O)cc(C)c1C[C@H](N)C(=O)N[C@@H]1CCCCNC(=O)C[C@@H](C(N)=O)NC(=O)[C@@H](Cc2cccc3ccccc23)NC(=O)[C@H](Cc2ccccc2)NC1=O` (H-[Dmt][dK]F[d1Nal]D-NH2; lactam 2-5), for which, in [9], the affinity corresponds to a Ki of 1.78 nM. The ED50 in data set [10] came out at 0.06 µg.
For `NC(=O)CNC(=O)[C@@H]1CCC(=O)NCCCC[C@@H](NC(=O)[C@@H](N)Cc2ccc(O)cc2)C(=O)N[C@@H](Cc2c[nH]c3ccccc23)C(=O)N[C@@H](Cc2ccccc2)C(=O)N1`, in [5], the half-maximal effective concentration (EC50) stood at 1.01 nM. The results for the ED50 in data set [11] and in data set [14] were 1.5 mg/kg and 0.019 nmol, respectively. Moreover, the Emax in data set [12] came to 100%. The results for the half-life in [13] and in data set [16] were 81 h and 150 h, respectively. Also, the Ki in data set [7] worked out at 0.68 nM; in data set [15], 5120 nM; in data set [8] it was 127 nM.
On to `CN(CCC(=O)O)C(=O)[C@H](Cc1ccccc1)NC(=O)[C@@H](CCCNC(=N)N)NC(=O)[C@H](Cc1ccc(O)cc1)NC(=N)N`, for which the Ki in [17] is above 1000 nM; in [19], above 1000 nM; in data set [20], 12.9 nM. Also, the ED50 in data set [18] is 0.07 mg/kg; in [2] it was 5.8 mg/kg; in data set [3], 0.09 mg/kg.
In the case of `C[C@@H]1NC(=O)[C@H]2CCCN2C(=O)[C@H](Cc2ccccc2)NC(=O)[C@@H](Cc2c[nH]c3ccccc23)NC1=O`, in data set [21], the ED50 came out at 1.04 nmol. Further, the IC50 in [22] is 397 nM; in [23], 1470 nM. In addition, the results for the Ki in data set [24], in data set [25] and in data set [26] were 299 nM, 167 nM and 10000 nM, respectively.
Turning to `CCNC(=O)C[C@H](NC(=O)[C@H](Cc1ccccc1)NC(=O)[C@H](Cc1ccccc1)NC(=O)[C@@H](CCCCNC(=O)C[C@H](NC(=O)[C@H](Cc1ccccc1)NC(=O)[C@H](Cc1ccccc1)NC(=O)CNC(=O)[C@@H](N)Cc1ccc(O)cc1)C(N)=O)NC(=O)[C@@H](N)Cc1ccc(O)cc1)C(N)=O`, the half-inhibitory concentration (IC50) is 26.2 nM in data set [27], 32 nM in data set [28] and above 1000 nM in data set [29]. Moreover, the ED50 in data set [10] was 1.96 nmol. In data set [30], the EC50 is 5.01 nM.
Compound `Cc1cc(O)cc(C)c1C[C@H](N)C(=O)N[C@@H]1CCCCNC(=O)C[C@@H](C(N)=O)NC(=O)[C@@H](Cc2ccc3ccccc3c2)NC(=O)[C@H](Cc2ccccc2)NC1=O` (H-[Dmt][dK]F[d2Nal]D-NH2; lactam 2-5) gave an inhibition constant Ki in [9] of 1.02 nM. The ED50 in data set [10] was 0.08 µg.

The values are drawn from ChEMBL document CHEMBL5126521, “Analgesic Opioid Ligand Discovery Based on Nonmorphinan Scaffolds Derived from Natural Sources” (J Med Chem, 2022).
